Source: patent US20240016876A1, “COMPOSITION FOR HANGOVER RELIEF COMPRISING NONI FRUIT EXTRACT OR FRACTION THEREOF AND USE THEREOF” (Cosmax NBT, Inc., priority 2020, published 2024)

system: alcohol dehydrogenase (ADH); assay: ADH activity enhancing efficacy (in vitro, Bergmeyer method); assay type: biochemical; details: samples treated at 10 μM; control group (CTL) not treated = 100%; FIGS. 1 and 2
Protocol: The ADH activity was measured by referring to [Bergmeyer, H. U. 1974. Methods of enzymatic analysis. Academic Press, New York. pp. 28], and measurements were made according to the method presented herein. All samples were treated at 10 μM, and the ADH activity of each sample was expressed as relative activity (%) with respect to the control group, based on 100% of the activity of the control group (CTL) which was not treated with the sample.

Structure (SMILES)	ADH activity compared to the control group
O=C(O)c1ccc(O)cc1 [4-hydroxybenzoic acid]	did not show an increase
CC(=O)OCC1=C[C@@H]2OC(=O)C3=CO[C@@H](O[C@@H]4O[C@H](CO)[C@@H](O)[C@H](O)[C@H]4O)[C@H]1[C@@H]32 [asperuloside]	did not show an increase
CC(=O)OCC1=C[C@H](O)[C@@H]2C(C(=O)O)=CO[C@@H](O[C@@H]3O[C@H](CO)[C@@H](O)[C@H](O)[C@H]3O)[C@H]12 [asperulosidic acid]	did not show an increase
O=C(O)/C=C/c1ccc(O)c(O)c1 [caffeic acid]	did not show an increase
O=C(/C=C/c1ccc(O)c(O)c1)O[C@@H]1C[C@](O)(C(=O)O)C[C@@H](O)[C@H]1O [chlorogenic acid]	did not show an increase
O=C(O)C1=CO[C@@H](O[C@@H]2O[C@H](CO)[C@@H](O)[C@H](O)[C@H]2O)[C@@H]2C(CO)=C[C@H](O)[C@H]12 [deacetylasperulosidic acid]	did not show an increase
O=C(O)c1cc(O)c(O)c(O)c1 [gallic acid]	did not show an increase
COc1ccc(C(=O)O)cc1 [p-anisic acid]	did not show an increase
COc1cc2ccc(=O)oc2cc1O [scopoletin]	did not show an increase
